Assay: Crystallization (polymorph) studies of compound A free base: fast/slow evaporation, slurry at 25° C., anti-solvent addition, vapor diffusion; solids analysed by XRPD
Type: physicochemical
Details: for FE: fast evaporative crystallization; for Results from Slow Evaporation Crystallization Experiments: slow evaporation at room temperature; for Slurry: slurry at 25° C., three days
Method: (§1) I. Fast Evaporative Crystallization Method (FE): compound A (ca. 30 mg) was dissolved in minimum quantity the stated solvent while heating at 80° C. The resulted solutions were filtered using a 0.45 μm PTFE syringe filter and the filtrate was collected. The filtrate was evaporated using a rotavap.
as §1, with “II. Slow” for “I. Fast”, “(SE):” for “(FE):”, “covered with perforated aluminum foil and left to evaporate at ambient temperature.” for “evaporated using a rotavap.”
III. Slurry Crystallization at 25° C. using Form I of compound A: compound A (ca. 100 mg) was suspended in minimum quantity the stated solvent. The resulted slurries were allowed to stir at 25° C. for three days.
IV. Anti-Solvent Addition Crystallization: compound A (ca. 50 mg) was dissolved in solubilizing solvent. To that solution 200 μL anti-solvent was added slowly. These iterations were continued until the precipitation observed or maximum solvent quantity of ~25 mL. Many solvents were used as the solubilizing solvent in these experiments. Selection of anti-solvent for each solubilizing solvent is based on the miscibility between them.
V. Vapor Diffusion Crystallization: compound A (ca. 30 mg) was dissolved in solubilizing solvent and kept in a small (8 mL) vial. These vials were kept in a larger vial (40 mL) that had 15 mL anti-solvents and closed the vial cap to allow vapor diffusion between them. Many solvents were used as the solubilizing solvent in these experiments. Selection of anti-solvent for each solubilizing solvent is based on the miscibility between them. All the experiments were kept in undisturbed laboratory bench and observed periodically to see if any crystals were grown during that time.
Compound A was slurred in respective solvents and stirred at 25° C. for three days. A total of five unique XRPD patterns were identified and designated as Form I, Form II, Form III, Form IV, and Form V.
Compound A was dissolved in a suitable solvent while heating up to 80° C. and the resultant solutions were allowed to slowly evaporate at room temperature (25° C.).
Compound A was dissolved in suitable solvents. To those solutions anti-solvents were added to obtain the solids. The solvent and anti-solvent selection was based on the solubility of compound A and also miscibility between them.

[1] = solvent 14DOX, anti-solvent DEE
[2] = solvent 14DOX, anti-solvent T-Butyl Methyl Ether
[3] = solvent CHCl3, anti-solvent 4-Me-2Pentanone
[4] = solvent CHCl3, anti-solvent DEE
[5] = solvent CHCl3, anti-solvent T-Butyl Methyl Ether
[6] = solvent DCM, anti-solvent 4-Me-2Pentanone
[7] = solvent DCM, anti-solvent T-Butyl Methyl Ether
[8] = solvent DMSO, anti-solvent Water
[9] = solvent EtOAc, anti-solvent 4-Me-2Pentanone
[10] = solvent EtOAc, anti-solvent DEE
[11] = solvent EtOAc, anti-solvent T-Butyl Methyl Ether
[12] = solvent EtOH, anti-solvent 4-Me-2Pentanone
[13] = solvent EtOH, anti-solvent T-Butyl Methyl Ether
[14] = solvent EtOH, anti-solvent Water
[15] = solvent IPA, anti-solvent 4-Me-2Pentanone
[16] = solvent IPA, anti-solvent T-Butyl Methyl Ether
[17] = solvent MeOH, anti-solvent 4-Me-2Pentanone
[18] = solvent MeOH, anti-solvent T-Butyl Methyl Ether
[19] = solvent MeOH, anti-solvent Water
[20] = solvent THF, anti-solvent 4-Me-2Pentanone
[21] = solvent THF, anti-solvent T-Butyl Methyl Ether
[22] = solvent THF, anti-solvent Water

## C[C@@H](Oc1ccc2[nH]nc(-c3ccc(N4CC5(C4)CN(S(C)(=O)=O)C5)nc3)c2c1)c1c(Cl)cncc1Cl [Compound A, 5-[(1R)-1-(3,5-dichloro-4-pyridyl)ethoxy]-3-[6-(2-methylsulfonyl-2,6-diazaspiro[3.3]heptan-6-yl)-3-pyridyl]-1H-indazole]
Solvent 4-Me 2-Pentanone
  FE: Not Dissolved
  Results from Slow Evaporation Crystallization Experiments: Form I
  Slurry: Form I
Solvent ACN
  FE: Form II
  Results from Slow Evaporation Crystallization Experiments: Form IV
  Slurry: Form III
Solvent Acetone
  FE: Form II
  Results from Slow Evaporation Crystallization Experiments: Form IV and 5
  Slurry: Form II
Solvent CHCl3
  FE: Clear film
  Slurry: Form III
Solvent DEE
  FE: Not Dissolved
  Results from Slow Evaporation Crystallization Experiments: Form I
  Slurry: Form I
Solvent EtOAc
  FE: Form VIII
  Results from Slow Evaporation Crystallization Experiments: Form IV
  Slurry: Form I
Solvent EtOH
  FE: Form IV
  Results from Slow Evaporation Crystallization Experiments: Form IV
  Slurry: Form I
Solvent H2O
  FE: Not Dissolved
  Results from Slow Evaporation Crystallization Experiments: Form I
  Slurry: Form I
Solvent IPA
  FE: Form IV
  Results from Slow Evaporation Crystallization Experiments: Form IV
  Slurry: Form I
Solvent MeOH
  FE: Form IV
  Results from Slow Evaporation Crystallization Experiments: Form II
  Slurry: Form II
Solvent THF
  FE: Clear film
  Results from Slow Evaporation Crystallization Experiments: Form IV
  Slurry: Form III
Solvent tert-butyl methyl ether
  FE: Not Dissolved
Solvent 1,2-Propdiol
  Results from Slow Evaporation Crystallization Experiments: Form IV
  Slurry: Form I
Solvent DCM
  Results from Slow Evaporation Crystallization Experiments: Form IV
  Slurry: Form II
Solvent DMF
  Results from Slow Evaporation Crystallization Experiments: Form IV
  Slurry: Form VII
Solvent DMSO
  Results from Slow Evaporation Crystallization Experiments: Form IV
Solvent Eth. Gly
  Results from Slow Evaporation Crystallization Experiments: Form IV
  Slurry: Form I
Solvent T-ButylMethEther
  Results from Slow Evaporation Crystallization Experiments: Form I
  Slurry: Form I
Solvent 14DOX
  Slurry: Form VI
Solvent 14DOX, anti-solvent 4-Me-2Pentanone
  Results of Anti-Solvent Addition Studies: No XRPD -
[1]
  Results of Anti-Solvent Addition Studies: Form II
  Results of Vapor Diffusion Studies: Form VIII
[2]
  Results of Anti-Solvent Addition Studies: Form I
  Results of Vapor Diffusion Studies: Form VIII
Solvent 14DOX, anti-solvent Water
  Results of Anti-Solvent Addition Studies: Form V
Solvent ACN, anti-solvent 4-Me-2Pentanone
  Results of Anti-Solvent Addition Studies: No XRPD -
Solvent ACN, anti-solvent DEE
  Results of Anti-Solvent Addition Studies: No XRPD -
Solvent ACN, anti-solvent T-Butyl Methyl Ether
  Results of Anti-Solvent Addition Studies: Form IV
Solvent ACN, anti-solvent Water
  Results of Anti-Solvent Addition Studies: Form V +
Solvent Acetone, anti-solvent 4-Me-2Pentanone
  Results of Anti-Solvent Addition Studies: No XRPD -
Solvent Acetone, anti-solvent DEE
  Results of Anti-Solvent Addition Studies: Form II
Solvent Acetone, anti-solvent T-Butyl Methyl Ether
  Results of Anti-Solvent Addition Studies: Form I
Solvent Acetone, anti-solvent Water
  Results of Anti-Solvent Addition Studies: Form V
[3]
  Results of Anti-Solvent Addition Studies: Form II
  Results of Vapor Diffusion Studies: Form I +
[4]
  Results of Anti-Solvent Addition Studies: Form I
  Results of Vapor Diffusion Studies: Form VIII
[5]
  Results of Anti-Solvent Addition Studies: Form I
  Results of Vapor Diffusion Studies: Form I
[6]
  Results of Anti-Solvent Addition Studies: Form IV
  Results of Vapor Diffusion Studies: Form I +
Solvent DCM, anti-solvent DEE
  Results of Anti-Solvent Addition Studies: Form II
  Results of Vapor Diffusion Studies: Form IV
[7]
  Results of Anti-Solvent Addition Studies: Form I
  Results of Vapor Diffusion Studies: Form I +
Solvent DMF, anti-solvent 4-Me-2Pentanone
  Results of Anti-Solvent Addition Studies: No XRPD -
Solvent DMF, anti-solvent DEE
  Results of Anti-Solvent Addition Studies: Form VIII
Solvent DMF, anti-solvent T-Butyl Methyl Ether
  Results of Anti-Solvent Addition Studies: Form II
Solvent DMF, anti-solvent Water
  Results of Anti-Solvent Addition Studies: Form II
Solvent DMSO, anti-solvent T-Butyl Methyl Ether
  Results of Anti-Solvent Addition Studies: Form IV
[8]
  Results of Anti-Solvent Addition Studies: Amorphous
  Results of Vapor Diffusion Studies: Form IV +
[9]
  Results of Anti-Solvent Addition Studies: Form IV +
  Results of Vapor Diffusion Studies: Form IV
[10]
  Results of Anti-Solvent Addition Studies: Form IV
  Results of Vapor Diffusion Studies: Form IV
[11]
  Results of Anti-Solvent Addition Studies: Form I
  Results of Vapor Diffusion Studies: Form IV
[12]
  Results of Anti-Solvent Addition Studies: No XRPD -
  Results of Vapor Diffusion Studies: No XRPD -
Solvent EtOH, anti-solvent DEE
  Results of Anti-Solvent Addition Studies: Form IV
  Results of Vapor Diffusion Studies: Form IV
[13]
  Results of Anti-Solvent Addition Studies: Form IV
  Results of Vapor Diffusion Studies: Form IV
[14]
  Results of Anti-Solvent Addition Studies: Form IV +
  Results of Vapor Diffusion Studies: Form IV +
[15]
  Results of Anti-Solvent Addition Studies: No XRPD -
  Results of Vapor Diffusion Studies: Form IV
Solvent IPA, anti-solvent DEE
  Results of Anti-Solvent Addition Studies: Form IV
  Results of Vapor Diffusion Studies: Form IV
[16]
  Results of Anti-Solvent Addition Studies: Form IV
  Results of Vapor Diffusion Studies: Form IV +
Solvent IPA, anti-solvent Water
  Results of Anti-Solvent Addition Studies: Form IV +
[17]
  Results of Anti-Solvent Addition Studies: No XRPD -
  Results of Vapor Diffusion Studies: No XRPD -
Solvent MeOH, anti-solvent DEE
  Results of Anti-Solvent Addition Studies: Form II
[18]
  Results of Anti-Solvent Addition Studies: Form II
  Results of Vapor Diffusion Studies: Form II
[19]
  Results of Anti-Solvent Addition Studies: Form II
  Results of Vapor Diffusion Studies: Form II
[20]
  Results of Anti-Solvent Addition Studies: Form I
  Results of Vapor Diffusion Studies: Form II
Solvent THF, anti-solvent DEE
  Results of Anti-Solvent Addition Studies: Form II
  Results of Vapor Diffusion Studies: Form IV
[21]
  Results of Anti-Solvent Addition Studies: Form I
  Results of Vapor Diffusion Studies: Form VIII
[22]
  Results of Anti-Solvent Addition Studies: Form V
  Results of Vapor Diffusion Studies: Form V

Reference: patent US20260285871A1, “Polymorphic Compounds and Uses Thereof” (TYRA BIOSCIENCES, INC., priority 2022, published 2026)
